Experiments:
human GPR52 = molecular target: T1, human GPR52 (Homo sapiens, UniProt Q9Y2T5); experiment: GPR52 Agonist Functional cAMP Assay; type: cell-based; conditions: for EC50: HEKf cells infected with human GPR52 BacMam virus, HTRF cAMP, 30 min at 37° C., read-out: PEC50 average (converted); for Emax / Emax (%): maximal response normalised to DMSO (0%) and compound 7m of J. Med. Chem., 2014, 57, 5226 (100%)
T1 construct: expressed in transfected cells; host or cells: HEKf suspension cells infected with BacMam virus
Method: GPR52 Agonist Functional cAMP Assay
HEKf suspension cells were infected for 24 h with 0.1% v/v human GPR52 expressing BacMam virus, a modified baculovirus designed for mammalian gene expression. Following BacMam infection, cells were pelleted by centrifugation (335 g, 5 min), resuspended in cell freezing medium (Sigma) and frozen at −150° C. until required. On experiment day, 25 nL GPR52 compound dilutions, prepared in DMSO, were stamped onto proxiplates (PerkinElmer) by a LabCyte ECHO acoustic dispenser. Frozen cells were thawed and resuspended in assay stimulation buffer (Cisbio) containing 0.5 mM 3-iso-butyl-1-methylxanthine (IBMX, Sigma) to achieve a density of 2000 cells per well. 10 μl cells were added to assay plates using a Multidrop Combi Reagent Dispenser (ThermoFisher) before centrifugation (335 g, 1 min). Cells were incubated with compounds at 37° C. for 30 min prior to addition of cAMP detection reagents (HiRange cAMP kit, Cisbio) which were prepared according to the manufacturer's instructions. Plates were shaken for 1 h at room temperature before reading on a PHERAstar FS plate reader (BMG Labtech) using standard HTRF settings. HTRF ratios were obtained by dividing the acceptor emissions (665 nm) by the donor emissions (620 nm) and multiplying by 10,000.

[1] = system: caffeine-induced hyperlocomotor activity; experiment: Attenuation of caffeine-induced locomotor activity in rat; type: in vivo, male Sprague-Dawley rats; conditions: PO 60 min before caffeine 15 mg/kg SC, locomotor activity over 2 h, FIG. 1
Text: Caffeine, a non-selective adenosine receptor antagonist, is a psychostimulant which increases rodent locomotor activity principally via blockade of A2A receptors (Br. J. Pharmacol., 2000, 129, 1465). These receptors are densely expressed on the terminals of GABAergic striatopallidal neurons in the indirect pathway of the basal ganglia, in which dopamine D2 receptors are co-expressed (J. Comp. Neurol., 1998, 401, 163; J. Comp. Neurol., 2001, 431, 331). Tonic activation of A2A receptors decreases the affinity of D2 receptors to dopamine and antagonism of A2A receptors facilitates dopaminergic signalling (Curr. Pharm. Des., 2008, 14, 1468). […] Male Sprague-Dawley rats (200-250 g) were housed in groups with a 12 h light/dark cycle (lights on at 07.00), at an ambient temperature of 21±2° C. and with standard pelleted diet and water adlibitum. Testing was carried out in the light phase. On the day of the experiment, animals were habituated to the locomotor cages for a 60-minute period. Subsequently, they were dosed with vehicle or Example 2 Isomer 1 (0.1, 0.3, 1 and 3 mg/kg) by the oral route and returned to the appropriate locomotor cage. Example 2 Isomer 1 was formulated in a vehicle of 10% DMAC, 10% solutol (Kolliphor HS15) and 80% water (v/v/v). […] Locomotor activity was assessed for a 2 h period after caffeine treatment. […] SEMs were calculated from the residuals of the statistical model. […]

T1 sequence (Q9Y2T5 whole entry): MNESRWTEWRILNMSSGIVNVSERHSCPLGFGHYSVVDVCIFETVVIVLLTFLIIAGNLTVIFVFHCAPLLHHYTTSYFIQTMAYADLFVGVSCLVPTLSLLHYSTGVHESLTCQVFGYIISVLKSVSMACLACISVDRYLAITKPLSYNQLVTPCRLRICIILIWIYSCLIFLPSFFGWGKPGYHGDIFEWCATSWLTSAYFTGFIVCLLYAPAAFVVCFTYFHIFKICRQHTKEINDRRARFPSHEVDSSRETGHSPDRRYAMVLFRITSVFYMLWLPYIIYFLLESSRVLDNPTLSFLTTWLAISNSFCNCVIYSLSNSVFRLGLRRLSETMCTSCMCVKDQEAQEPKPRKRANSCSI

NC1CCCc2c1nnn2-c1cc(Cc2cc(F)cc(C(F)(F)F)c2)ccn1 (single isomer, unassigned) [Example 1 Isomer 1, 1-(4-(3-fluoro-5-(trifluoromethyl)benzyl)pyridin-2-yl)-4,5,6,7-tetrahydro-1H-benzo[d][1,2,3]triazol-4-amine]
EC50 (human GPR52): 12.6 nM | Emax (human GPR52): 101%

NC1CCCc2c1nnn2-c1cc(Cc2cc(F)cc(C(F)(F)F)c2)ccn1 (single isomer, unassigned) [Example 1 Isomer 2, 1-(4-(3-fluoro-5-(trifluoromethyl)benzyl)pyridin-2-yl)-4,5,6,7-tetrahydro-1H-benzo[d][1,2,3]triazol-4-amine]
EC50 (human GPR52): 63.1 nM | Emax (%) (human GPR52): 97%

CC(=O)NC1CCCc2c1nnn2-c1cc(Cc2cc(F)cc(C(F)(F)F)c2)ccn1 (single isomer, unassigned) [Example 2 Isomer 1, N-(1-(4-(3-fluoro-5-(trifluoromethyl)benzyl)pyridin-2-yl)-4,5,6,7-tetrahydro-1H-benzo[d][1,2,3]triazol-4-yl)acetamide]
effect on caffeine-induced hyperlocomotor response [1]: dose-dependent reduction of the caffeine-induced hyperlocomotor response, reaching statistical significance across all time points at 3 and 10 mg/kg | EC50 (human GPR52): 15.8 nM | Emax (%) (human GPR52): 91%

CC(=O)NC1CCCc2c1nnn2-c1cc(Cc2cc(F)cc(C(F)(F)F)c2)ccn1 (single isomer, unassigned) [Example 2 Isomer 2, N-(1-(4-(3-fluoro-5-(trifluoromethyl)benzyl)pyridin-2-yl)-4,5,6,7-tetrahydro-1H-benzo[d][1,2,3]triazol-4-yl)acetamide]
EC50 (human GPR52): 2510 nM | Emax (human GPR52): 78%

CC(=O)NC1CCCc2c1nnn2-c1cc(Cc2cc(F)cc(C(F)F)c2)ccn1 (single isomer, unassigned) [Example 13 Isomer 1, N-(1-(4-(3-(difluoromethyl)-5-fluorobenzyl)pyridin-2-yl)-4,5,6,7-tetrahydro-1H-benzo[d][1,2,3]triazol-4-yl)acetamide]
EC50 (human GPR52): 501 nM | Emax (human GPR52): 73%

CC(=O)NC1CCCc2c1nnn2-c1cc(Cc2cc(F)cc(C(F)F)c2)ccn1 (single isomer, unassigned) [Example 13 Isomer 2, N-(1-(4-(3-(difluoromethyl)-5-fluorobenzyl)pyridin-2-yl)-4,5,6,7-tetrahydro-1H-benzo[d][1,2,3]triazol-4-yl)acetamide]
EC50 (human GPR52): 5.01 nM | Emax (%) (human GPR52): 93%

NC1CCCc2c1nnn2-c1cc(Cc2cc(F)cc(C(F)(F)F)c2)ccn1 (stereo not drawn) [Example 1, 1-(4-(3-fluoro-5-(trifluoromethyl)benzyl)pyridin-2-yl)-4,5,6,7-tetrahydro-1H-benzo[d][1,2,3]triazol-4-amine]
EC50 (human GPR52): 25.1 nM | Emax (human GPR52): 100%

CCC(=O)NC1CCCc2c1nnn2-c1cc(Cc2cc(F)cc(C(F)(F)F)c2)ccn1 (stereo not drawn) [Example 3, N-(1-(4-(3-fluoro-5-(trifluoromethyl)benzyl)pyridin-2-yl)-4,5,6,7-tetrahydro-1H-benzo[d][1,2,3]triazol-4-yl)propionamide]
EC50 (human GPR52): 25.1 nM | Emax (human GPR52): 96%

O=C(NC1CCCc2c1nnn2-c1cc(Cc2cc(F)cc(C(F)(F)F)c2)ccn1)C(F)F (stereo not drawn) [Example 4, 2,2-difluoro-N-(1-(4-(3-fluoro-5-(trifluoromethyl)benzyl)pyridin-2-yl)-4,5,6,7-tetrahydro-1H-benzo[d][1,2,3]triazol-4-yl)acetamide]
EC50 (human GPR52): 25.1 nM | Emax (human GPR52): 87%

O=C(CF)NC1CCCc2c1nnn2-c1cc(Cc2cc(F)cc(C(F)(F)F)c2)ccn1 (stereo not drawn) [Example 5, 2-fluoro-N-[1-(4-{[3-fluoro-5-(trifluoromethyl)phenyl]methyl}pyridin-2-yl)-4,5,6,7-tetrahydro-1H-benzotriazol-4-yl]acetamide]
EC50 (human GPR52): 39.8 nM | Emax (human GPR52): 94%

CC(=O)NC1CCCc2c1nnn2-c1cc(Oc2cc(F)cc(C(F)(F)F)c2)ccn1 (stereo not drawn) [Example 6, N-(1-(4-(3-fluoro-5-(trifluoromethyl)phenoxy)pyridin-2-yl)-4,5,6,7-tetrahydro-1H-benzo[d][1,2,3]triazol-4-yl)acetamide]
EC50 (human GPR52): 126 nM | Emax (human GPR52): 89%

CNC1CCCc2c1nnn2-c1cc(Cc2cc(F)cc(C(F)(F)F)c2)ccn1 (stereo not drawn) [Example 7, 1-(4-(3-fluoro-5-(trifluoromethyl)benzyl)pyridin-2-yl)-N-methyl-4,5,6,7-tetrahydro-1H-benzo[d][1,2,3]triazol-4-amine]
EC50 (human GPR52): 31.6 nM | Emax (human GPR52): 98%

COCCNC1CCCc2c1nnn2-c1cc(Cc2cc(F)cc(C(F)(F)F)c2)ccn1 (stereo not drawn) [Example 8, 1-(4-(3-fluoro-5-(trifluoromethyl)benzyl)pyridin-2-yl)-N-(2-methoxyethyl)-4,5,6,7-tetrahydro-1H-benzo[d][1,2,3]triazol-4-amine]
EC50 (human GPR52): 50.1 nM | Emax (human GPR52): 94%

Fc1cc(Cc2ccnc(-n3nnc4c3CCCC4NC3COC3)c2)cc(C(F)(F)F)c1 (stereo not drawn) [Example 9, 1-(4-(3-fluoro-5-(trifluoromethyl)benzyl)pyridin-2-yl)-N-(oxetan-3-yl)-4,5,6,7-tetrahydro-1H-benzo[d][1,2,3]triazol-4-amine]
EC50 (human GPR52): 100 nM | Emax (human GPR52): 93%

Fc1cc(Cc2ccnc(-n3nnc4c3CCCC4NC3CCOC3)c2)cc(C(F)(F)F)c1 (stereo not drawn) [Example 10, 1-(4-(3-fluoro-5-(trifluoromethyl)benzyl)pyridin-2-yl)-N-(tetrahydrofuran-3-yl)-4,5,6,7-tetrahydro-1H-benzo[d][1,2,3]triazol-4-amine]
EC50 (human GPR52): 31.6 nM | Emax (human GPR52): 94%

CC(=O)NC1CCCc2c1nnn2-c1cc(Cc2cccc(C(F)(F)F)c2)ccn1 (stereo not drawn) [Example 11, N-(1-(4-(3-(trifluoromethyl)benzyl)pyridin-2-yl)-4,5,6,7-tetrahydro-1H-benzo[d][1,2,3]triazol-4-yl)acetamide]
EC50 (human GPR52): 200 nM | Emax (human GPR52): 91%

CC(=O)NC1CCCc2c1nnn2-c1cc(Cc2cc(F)cc(OC(F)F)c2)ccn1 (stereo not drawn) [Example 12, N-(1-(4-(3-(difluoromethoxy)-5-fluorobenzyl)pyridin-2-yl)-4,5,6,7-tetrahydro-1H-benzo[d][1,2,3]triazol-4-yl)acetamide]
EC50 (human GPR52): 31.6 nM | Emax (human GPR52): 87%

CC(=O)NC1CCCc2c1nnn2-c1cc(Cc2cc(F)cc(C(F)F)c2)ccn1 (stereo not drawn) [Example 13, N-(1-(4-(3-(difluoromethyl)-5-fluorobenzyl)pyridin-2-yl)-4,5,6,7-tetrahydro-1H-benzo[d][1,2,3]triazol-4-yl)acetamide]
EC50 (human GPR52): 12.6 nM | Emax (human GPR52): 93%

CC(=O)NC1CCCc2c1nnn2-c1cc(Cc2cc(F)cc(CF)c2)ccn1 (stereo not drawn) [Example 14, N-(1-(4-(3-fluoro-5-(fluoromethyl)benzyl)pyridin-2-yl)-4,5,6,7-tetrahydro-1H-benzo[d][1,2,3]triazol-4-yl)acetamide]
EC50 (human GPR52): 50.1 nM | Emax (human GPR52): 90%
